Data taken from the NIST ThermoML archive (doi:10.1021/je050488p).
± gives the expanded uncertainty stated by the source.

Settings: Crystal; visual observation

Structure (SMILES): O=P1(CO)Oc2ccccc2-c2ccccc21 (stereo unspecified) [6-(hydroxymethyl)dibenzo[c,e][1,2]oxaphosphinine 6-oxide]
- Normal melting temperature: 158.50 ± 1.5 °C
